Experimental data: patent US4960775A, “Pyrrolophthalazines” (May & Baker Limited, priority 1987, dated 1990)

Target: T1, rat hepatic microsomal HMG CoA reductase (Rattus norvegicus, UniProt P51639)
T1 construct: rat hepatic microsomal HMG CoA reductase activity in vitro; from tissue; host or cells: rat liver microsomes
T1 sequence (P51639 1-887): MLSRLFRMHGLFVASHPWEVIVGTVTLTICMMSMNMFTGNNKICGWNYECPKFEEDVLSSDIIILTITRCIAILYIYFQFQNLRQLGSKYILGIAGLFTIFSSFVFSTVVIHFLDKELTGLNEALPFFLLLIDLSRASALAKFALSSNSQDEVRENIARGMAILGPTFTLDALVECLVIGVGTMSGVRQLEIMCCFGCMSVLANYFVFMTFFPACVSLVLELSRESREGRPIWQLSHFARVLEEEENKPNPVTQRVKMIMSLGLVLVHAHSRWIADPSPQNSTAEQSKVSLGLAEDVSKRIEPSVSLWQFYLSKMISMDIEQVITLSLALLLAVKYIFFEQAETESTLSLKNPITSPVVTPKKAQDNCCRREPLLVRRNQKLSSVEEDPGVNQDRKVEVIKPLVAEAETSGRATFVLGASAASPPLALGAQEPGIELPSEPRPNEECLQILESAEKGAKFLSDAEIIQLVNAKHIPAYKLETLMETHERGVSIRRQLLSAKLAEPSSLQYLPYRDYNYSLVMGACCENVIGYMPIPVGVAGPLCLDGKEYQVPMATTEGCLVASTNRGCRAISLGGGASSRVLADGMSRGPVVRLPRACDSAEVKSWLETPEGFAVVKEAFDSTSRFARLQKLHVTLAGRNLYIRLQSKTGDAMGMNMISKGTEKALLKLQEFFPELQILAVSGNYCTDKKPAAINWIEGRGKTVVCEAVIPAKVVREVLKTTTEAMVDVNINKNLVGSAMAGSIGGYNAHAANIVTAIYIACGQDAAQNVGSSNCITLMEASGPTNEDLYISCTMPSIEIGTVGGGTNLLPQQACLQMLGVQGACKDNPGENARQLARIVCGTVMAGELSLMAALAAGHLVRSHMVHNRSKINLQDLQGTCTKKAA
Assay: inhibition of rat hepatic microsomal HMG CoA reductase activity in vitro
Assay type: biochemical
Conditions: for inhibition at 0.027 µg/mL: 0.027 micrograms/ml; for inhibition at 0.082 µg/mL: 0.082 micrograms/ml; for inhibition at 0.24 µg/mL: 0.24 micrograms/ml; for inhibition at 0.74 µg/mL: 0.74 micrograms/ml; for inhibition at 2.22 µg/mL: 2.22 micrograms/ml; for inhibition at 6.66 µg/mL: 6.66 micrograms/ml; for inhibition at 20 µg/mL: 20.0 micrograms/ml; for inhibition at 0.25 µg/mL: 0.25 micrograms/ml; for inhibition at 6.67 µg/mL: 6.67 micrograms/ml
Excerpt: In the table the concentrations of the test compounds are expressed in micrograms/ml.

| SMILES | inhibition at 0.027 µg/mL [%] | inhibition at 0.082 µg/mL [%] | inhibition at 0.24 µg/mL [%] | inhibition at 0.74 µg/mL [%] | inhibition at 2.22 µg/mL [%] | inhibition at 6.66 µg/mL [%] | inhibition at 20 µg/mL [%] | inhibition at 0.27 µg/mL (0.27 micrograms/ml (so in the source)) [%] | inhibition at 0.25 µg/mL [%] | inhibition at 6.67 µg/mL [%] |
| --- | --- | --- | --- | --- | --- | --- | --- | --- | --- | --- |
| CC(C)c1c(/C=C/[C@@H](O)C[C@@H](O)CC(=O)O)c(-c2ccc(F)cc2)c2c3ccccc3cnn12 (relative stereo) [Compound DA, sodium erythro-(E)-7-{1-(4-fluorophenyl)-3-isopropylpyrrolo[2,1-a]phthalazin-2-yl}-3,5-dihydroxyhept-6-enoate] | 49 | 58 | 72 | 86 | 94 | 98 | – | – | – | – |
| CCOC(=O)C[C@H](O)C[C@H](O)/C=C/c1c(-c2ccc(F)cc2)c2c3ccccc3cnn2c1C(C)C (relative stereo) [CA, ethyl erythro-(E)-7-{1-(4-fluorophenyl)-3-isopropylpyrrolo[2,1-a]phthalazin-2-yl)-3,5-dihydroxyhept-6-enoate] | 23 | 33 | 47 | 65 | 85 | 95 | – | – | – | – |
| CC(C)c1c(/C=C/C(=O)CC(O)CC(=O)O)c(-c2ccc(F)cc2)c2c3ccccc3cnn12 (stereo not drawn) [Compound G, sodium (E)-7-{1-(4-fluorophenyl)-3-isopropylpyrrolo[2,1-a]phthalazin-2-yl)-3-hydroxy-5-oxohept-6-enoate] | – | – | – | 29 | 52 | 77 | 92 | – | – | – |
| CC(C)c1c(/C=C/[C@@H](O)C[C@H](O)CC(=O)O)c(-c2ccc(F)cc2)c2c3ccccc3cnn12 (relative stereo) [Compound DB, sodium threo-(E)-7-{1-(4-fluorophenyl)-3-isopropylpyrrolo[2,1-a]-phthalazin-2-yl}-3,5-dihydroxyhept-6-enoate] | – | 34 | 45 | 52 | 67 | 85 | – | 29 | – | – |
| CC(C)c1c(/C=C/C(O)CC(O)CC(=O)O)c(-c2ccc(F)cc2)c2c3ccccc3cnn12 (stereo not drawn) [Compound D, sodium (E)-7-{1-(4-fluorophenyl)-3-isopropylpyrrolo[2,1-a]-phthalazin-2-yl)-3,5-dihydroxyhept-6-enoate] | 47 | 50 | – | 66 | 76 | – | – | – | 61 | 90 |
| CC(C)c1c(/C=C/C(O)CC(O)CC(=O)O)c(-c2ccccc2)c2c3ccccc3cnn12 (stereo not drawn) [Compound B, sodium (E)-3,5-dihydroxy-7-(3-isopropyl-1-phenylpyrrolo[2,1-a]phthalazin-2-yl)-hept-6-enoate] | – | – | – | 56 | 74 | – | 98 | – | 38 | 90 |
